Results as given in BindingDB's records for doi:10.1021/acs.jmedchem.9b01567 (Peking Union Medical College, 2020).

Assays:
[1] = target: T1, Interferon regulatory factor 3 (Homo sapiens, UniProt Q14653); assay: Induction of IRF3 pathway in STING knockout human THP1 cells measured after 20 hrs by luciferase reporter gene assay
T1 sequence (Q14653 whole entry): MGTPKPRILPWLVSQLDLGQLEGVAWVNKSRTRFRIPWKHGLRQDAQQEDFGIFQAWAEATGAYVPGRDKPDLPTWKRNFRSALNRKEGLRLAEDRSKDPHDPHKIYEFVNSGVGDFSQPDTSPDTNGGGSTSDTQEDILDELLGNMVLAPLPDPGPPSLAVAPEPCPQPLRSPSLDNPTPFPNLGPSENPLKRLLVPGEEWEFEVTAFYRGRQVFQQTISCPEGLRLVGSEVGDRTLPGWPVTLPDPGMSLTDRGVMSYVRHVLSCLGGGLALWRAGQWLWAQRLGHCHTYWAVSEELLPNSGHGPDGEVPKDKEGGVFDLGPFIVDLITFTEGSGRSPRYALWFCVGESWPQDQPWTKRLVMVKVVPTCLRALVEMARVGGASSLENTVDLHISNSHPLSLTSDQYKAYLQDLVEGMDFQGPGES

[2] = Agonist activity at STING in human THP1 cells assessed as stimulation of IRF3 pathway measured after 20 hrs by luciferase reporter gene assay

**Q.** With CCn1nc(C)cc1C(=O)Nc1nc2cc(C(N)=O)cnc2n1CCCNC(=O)OC(C)(C)C as the compound, how does the EC50 [1] read?
**A.** Its EC50 is > 100 µM.

**Q.** What about the EC50 [2] of the same compound?
**A.** The EC50 was > 100 µM.

**Q.** Which EC50 [1] does the source give for COc1cc(C(N)=O)cc2nc(NC(=O)CCc3ccccc3)n(CCCNC(=O)OCc3ccccc3)c12 here?
**A.** Its EC50 is > 100 µM.

**Q.** What about the EC50 [2] of the same compound?
**A.** Its EC50 is > 100 µM.

**Q.** What does the source list for CCn1nc(C)cc1C(=O)Nc1nc2cc(C(=O)OC)cnc2n1CCCNC(=O)OC(C)(C)C?
**A.** EC50 [1]: > 100 µM; EC50 [2]: > 100 µM

**Q.** Which EC50 [1] does the source give for COc1cc(C(N)=O)cc2nc(NC(=O)c3ccccn3)n(CCCCNC(=O)OC(C)(C)C)c12 here?
**A.** The EC50 was > 100 µM.

**Q.** For CCn1nc(C)cc1C(=O)Nc1nc2cc(C(N)=O)cc(OC)c2n1CCCNC(=O)OC(C)(C)C, which EC50 [1] is on record?
**A.** Its EC50 is > 100 µM.

**Q.** Which EC50 [1] does the source give for COc1cc(C(N)=O)cc2nc(NC(=O)c3cc4ccccc4n3C)n(CCCNC(=O)OCc3ccccc3)c12 here?
**A.** Its EC50 is > 100 µM.

**Q.** And the EC50 [2]?
**A.** Its EC50 is > 100 µM.

**Q.** Which EC50 [1] does the source give for CCn1nc(C)cc1C(=O)Nc1nc2cc(C(N)=O)ccc2n1CCCNC(=O)OCc1ccccc1 here?
**A.** Its EC50 is > 100 µM.

**Q.** What about the EC50 [2] of the same compound?
**A.** Its EC50 is > 100 µM.

**Q.** Which EC50 [1] does the source give for CCCn1c(NC(=O)c2cccnn2)nc2cc(C(N)=O)cc(OC)c21 here?
**A.** Its EC50 is > 100 µM.

**Q.** What about the EC50 [2] of the same compound?
**A.** The EC50 was > 100 µM.

**Q.** Which results are given for CCn1nc(C)cc1C(=O)Nc1nc2cc(C(=O)O)cnc2n1CCCNC(=O)OC(C)(C)C?
**A.** EC50 [1]: > 100 µM; EC50 [2]: > 100 µM

**Q.** What does the source list for CCCn1c(NC(=O)c2cc(C)nn2CC)nc2cc(C(=O)OC)cc(OC)c21?
**A.** EC50 [1]: > 100 µM; EC50 [2]: > 100 µM

**Q.** With CCCn1c(NC(=O)c2cc(C)nn2CC)nc2cc(C(N)=O)ccc21 as the compound, how does the EC50 [1] read?
**A.** Its EC50 is > 100 µM.

**Q.** With CCCn1c(NC(=O)c2ccccn2)nc2cc(C(N)=O)cc(OC)c21 as the compound, how does the EC50 [1] read?
**A.** Its EC50 is > 100 µM.

**Q.** What about the EC50 [2] of the same compound?
**A.** The EC50 was > 100 µM.

**Q.** What does the source list for CCCn1c(NC(=O)c2cc3ccccc3n2C)nc2cc(C(N)=O)cc(OC)c21?
**A.** EC50 [1]: > 100 µM; EC50 [2]: > 100 µM

**Q.** For COc1cc(C(N)=O)cc2nc(NC(=O)c3cccn3C)n(CCCNC(=O)OCc3ccccc3)c12, which EC50 [1] is on record?
**A.** The EC50 was > 100 µM.

**Q.** And the EC50 [2]?
**A.** The EC50 was > 100 µM.

**Q.** Which results are given for CCCn1c(NC(=O)c2cncn2C)nc2cc(C(N)=O)cc(OC)c21?
**A.** EC50 [1]: > 100 µM; EC50 [2]: > 100 µM

**Q.** For COc1cc(C(N)=O)cc2nc(NC(=O)c3ccnn3C)n(CCCNC(=O)OCc3ccccc3)c12, which EC50 [1] is on record?
**A.** Its EC50 is > 100 µM.

**Q.** And the EC50 [2]?
**A.** Its EC50 is > 100 µM.

**Q.** What does the source list for CCn1nc(C)cc1C(=O)Nc1nc2cc(C(N)=O)cc(OC)c2n1CCCN?
**A.** EC50 [1]: > 100 µM; EC50 [2]: > 100 µM

**Q.** Which EC50 [1] does the source give for NC(=O)c1cc(OCCCN2CCOCC2)c2c(c1)nc(NC(=O)c1ccccn1)n2CCCNC(=O)OCc1ccccc1 here?
**A.** The EC50 was > 100 µM.

**Q.** What about the EC50 [2] of the same compound?
**A.** Its EC50 is > 100 µM.

**Q.** Which results are given for CCn1nc(C)cc1C(=O)Nc1nc2cccc(OC)c2n1CCCNC(=O)OCc1ccccc1?
**A.** EC50 [1]: > 100 µM; EC50 [2]: > 100 µM

**Q.** With CCn1nc(C)cc1C(=O)Nc1nc2cc(C(N)=O)cc(OC)c2n1CCCNC(=O)CCC(=O)O as the compound, how does the EC50 [1] read?
**A.** The EC50 was > 100 µM.

**Q.** What about the EC50 [2] of the same compound?
**A.** The EC50 was > 100 µM.

**Q.** With CCCn1c(NC(=O)c2ccc3ccccc3n2)nc2cc(C(N)=O)cc(OC)c21 as the compound, how does the EC50 [1] read?
**A.** The EC50 was > 100 µM.

**Q.** What about the EC50 [2] of the same compound?
**A.** Its EC50 is > 100 µM.

**Q.** What does the source list for CCn1nc(C)cc1C(=O)Nc1nc2cc(C(N)=O)cc(OC)c2n1CCCNC(=O)CCc1cccnc1?
**A.** EC50 [1]: > 100 µM; EC50 [2]: 39.5 µM

**Q.** For COCCCOc1cc(C(N)=O)cc2nc(NC(=O)c3ccccn3)n(CCCNC(=O)OCc3ccccc3)c12, which EC50 [1] is on record?
**A.** Its EC50 is > 100 µM.

**Q.** With CCn1nc(C)cc1C(=O)Nc1nc2cc(C(N)=O)cc(OC)c2n1CCCNC(=O)c1ccccc1 as the compound, how does the EC50 [1] read?
**A.** Its EC50 is > 100 µM.

**Q.** And the EC50 [2]?
**A.** The EC50 was > 100 µM.

**Q.** Which EC50 [1] does the source give for CCn1nc(C)cc1C(=O)Nc1nc2cc(C(N)=O)cc(OCCCN3CCOCC3)c2n1CCCNC(=O)OCc1ccccc1 here?
**A.** The EC50 was > 100 µM.

**Q.** Which EC50 [1] does the source give for CCn1nc(C)cc1C(=O)Nc1nc2cc(C(=O)OC)cc(OC)c2n1CCCNC(=O)OCc1ccccc1 here?
**A.** Its EC50 is 27.6 µM.

**Q.** What about the EC50 [2] of the same compound?
**A.** Its EC50 is 20.7 µM.

**Q.** For CCCn1c(NC(=O)c2ccnn2CC)nc2cc(C(N)=O)cc(OC)c21, which EC50 [1] is on record?
**A.** Its EC50 is > 100 µM.

**Q.** What about the EC50 [2] of the same compound?
**A.** Its EC50 is > 100 µM.

**Q.** Which EC50 [1] does the source give for CCn1nccc1C(=O)Nc1nc2cc(C(N)=O)cc(OC)c2n1CCCNC(=O)OCc1ccccc1 here?
**A.** The EC50 was > 100 µM.

**Q.** What about the EC50 [2] of the same compound?
**A.** The EC50 was > 100 µM.

**Q.** Which EC50 [1] does the source give for COc1cc(C(N)=O)cc2nc(NC(=O)c3nccc4ccccc34)n(CCCNC(=O)OCc3ccccc3)c12 here?
**A.** Its EC50 is > 100 µM.

**Q.** What about the EC50 [2] of the same compound?
**A.** The EC50 was > 100 µM.

**Q.** For COc1cc(C(N)=O)cc2nc(NC(=O)C3CCCN3C)n(CCCNC(=O)OCc3ccccc3)c12 (centres undefined), which EC50 [1] is on record?
**A.** The EC50 was > 100 µM.

**Q.** What about the EC50 [2] of the same compound?
**A.** Its EC50 is > 100 µM.

**Q.** What does the source list for CCCn1c(NC(=O)c2ccnn2C)nc2cc(C(N)=O)cc(OC)c21?
**A.** EC50 [1]: > 100 µM; EC50 [2]: > 100 µM

**Q.** For CCCn1c(NC(=O)c2cc(C)nn2CC)nc2cccc(OC)c21, which EC50 [1] is on record?
**A.** The EC50 was > 100 µM.

**Q.** And the EC50 [2]?
**A.** Its EC50 is > 100 µM.

**Q.** Which EC50 [1] does the source give for COc1cc(C(N)=O)cc2nc(NC(=O)c3ccc4ccccc4n3)n(CCCNC(=O)OCc3ccccc3)c12 here?
**A.** Its EC50 is > 100 µM.

**Q.** What about the EC50 [2] of the same compound?
**A.** Its EC50 is > 100 µM.

**Q.** For COc1cc(C(N)=O)cc2nc(NC(=O)c3cccnn3)n(CCCNC(=O)OCc3ccccc3)c12, which EC50 [1] is on record?
**A.** Its EC50 is > 100 µM.

**Q.** For COc1cc(C(N)=O)cc2nc(NC(=O)c3cccnn3)n(CCCCNC(=O)OC(C)(C)C)c12, which EC50 [1] is on record?
**A.** The EC50 was > 100 µM.

**Q.** Which EC50 [1] does the source give for CCn1nc(C)cc1C(=O)Nc1nc2cc(C(N)=O)cc(OC)c2n1CCCNC(=O)C(C)(C)C here?
**A.** The EC50 was > 100 µM.

**Q.** What about the EC50 [2] of the same compound?
**A.** Its EC50 is 27.5 µM.

**Q.** With CCn1nc(C)cc1C(=O)Nc1nc2cc(C(N)=O)cc(OC)c2n1CCCNC(=O)CCC(=O)OC as the compound, how does the EC50 [1] read?
**A.** The EC50 was > 100 µM.

**Q.** And the EC50 [2]?
**A.** Its EC50 is > 100 µM.

**Q.** Which EC50 [1] does the source give for CCCn1c(NC(=O)c2nccc3ccccc23)nc2cc(C(N)=O)cc(OC)c21 here?
**A.** The EC50 was > 100 µM.

**Q.** And the EC50 [2]?
**A.** The EC50 was > 100 µM.

**Q.** With COc1cc(C(N)=O)cc2nc(NC(=O)c3ccccn3)n(CCCNC(=O)OCc3ccccc3)c12 as the compound, how does the EC50 [1] read?
**A.** The EC50 was > 100 µM.

**Q.** Which results are given for NC(=O)c1cc(OCCCN2CCOCC2)c2c(c1)nc(NC(=O)c1cccnn1)n2CCCNC(=O)OCc1ccccc1?
**A.** EC50 [1]: > 100 µM; EC50 [2]: > 100 µM

**Q.** For CCn1nc(C)cc1C(=O)Nc1nc2cc(C(N)=O)cc(OC)c2n1CCCNC(=O)OCc1ccccc1, which EC50 [1] is on record?
**A.** The EC50 was > 100 µM.

**Q.** What about the EC50 [2] of the same compound?
**A.** The EC50 was 0.872 µM.

**Q.** Which results are given for COc1cc(C(N)=O)cc2nc(NC(=O)C3CCN(C)CC3)n(CCCNC(=O)OCc3ccccc3)c12?
**A.** EC50 [1]: > 100 µM; EC50 [2]: > 100 µM

**Q.** With CCCn1c(NC(=O)CCc2ccccc2)nc2cc(C(N)=O)cc(OC)c21 as the compound, how does the EC50 [1] read?
**A.** The EC50 was > 100 µM.

**Q.** And the EC50 [2]?
**A.** Its EC50 is > 100 µM.

**Q.** Which EC50 [1] does the source give for COc1cc(C(N)=O)cc2nc(NC(=O)c3cncn3C)n(CCCNC(=O)OCc3ccccc3)c12 here?
**A.** Its EC50 is > 100 µM.

**Q.** And the EC50 [2]?
**A.** The EC50 was > 100 µM.

**Q.** For CCn1nc(C)cc1C(=O)Nc1nc2cc(C(N)=O)cc(OC)c2n1CCCNC(=O)CCc1cc(OC)c(OC)c(OC)c1, which EC50 [1] is on record?
**A.** Its EC50 is > 100 µM.

**Q.** What about the EC50 [2] of the same compound?
**A.** The EC50 was > 100 µM.

**Q.** With COCCCOc1cc(C(N)=O)cc2nc(NC(=O)c3cccnn3)n(CCCNC(=O)OCc3ccccc3)c12 as the compound, how does the EC50 [1] read?
**A.** Its EC50 is > 100 µM.

**Q.** And the EC50 [2]?
**A.** The EC50 was > 100 µM.
